# In PMC8725944, “Design and synthesis of chromone-nitrogen mustard derivatives and evaluation of anti-breast cancer activity” (Journal of Enzyme Inhibition and Medicinal Chemistry, 2021):
# Assays:
# [1] = tested on: MDA-MB-231 cells; experiment: Comet assay (DNA damage); format: cell-based, human; conditions: 72 h, control 0.48%
# Experimental: DNA damage was detected by Comet Assay Kit (Keygen, Nanjing, China) according to the manufacturer’s instructions. Briefly, MDA-MB-231 cells were treated with 22e (0, 0.475, 0.95 and 1.9 μM) for 72 h. The collected cells were fixed on CometSlide for 15 min at 4 °C. Subsequently, the cells were incubated in lysis solution at 4 °C for 90 min, the slides were electrophoresed for 20 min, fixed in ethanol for 5 min, and stained with Vista Green DNA Dye. Finally, the data were got by fluorescence microscope.
# [2] = tested on: MDA-MB-231 cells; experiment: Cell apoptosis assay (annexin V-FITC/PI, flow cytometry); format: cell-based, human; conditions: 72 h, control 5.85%
# Experimental: MDA-MB-231 cells were cultured in 6-well plates at 37 °C for 24 h, and then different concentrations of 22e (0, 0.475, 0.95 and 1.9 μM) were added. After 72 h of incubation, the cells were collected and suspended in binding buffer (500 μL). Finally, annexin V-fluorescein isothiocyanate (Annexin V-FITC, 5 μL) and propidium iodide (PI, 5 μL) were added, and the reaction was kept at room temperature in the dark for 10 min, then cell apoptosis was measured by flow cytometry.
# [3] = tested on: MDA-MB-231 cells; experiment: Adhesion assay; format: cell-based, human; conditions: 22e 0.475, 0.95 and 1.9 μM, 72 h
# Experimental: Different concentrations of 22e (0, 0.475, 0.95 and 1.9 μM) were used to treat MDA-MB-231 cells for 72 h. Then the serum-free medium containing CaM stain was added, cell suspension (100 μL) was cultured to 96-well plates (2000 cells/well) for 1 h. Finally, plates were washed with PBS, fixed with 3.7% formaldehyde, washed with PBS again, and took pictures with fluorescence microscope.
# [4] = tested on: MDA-MB-231 cells; experiment: Wound healing assay (migration); format: cell-based, human; conditions: 22e 0.475, 0.95 and 1.9 μM, 24 h, versus untreated cells
# Experimental: MDA-MB-231 cells were cultured in 6-well plates at 37 °C for 24 h. After the cells attached, different concentrations of 22e (0, 0.475, 0.95 and 1.9 μM) were added. Sterile pipette tips were used to scratch evenly in 6-well plates, the floating cells were washed away with PBS, and the fresh culture medium was replaced. After incubation for 24 h, the cells were photographed and the migration distance was measured.
# [5] = tested on: MDA-MB-231 cells; experiment: Detection of intracellular ROS (DCFH-DA, flow cytometry); format: cell-based, human; conditions: 72 h, control 4.56%
# Experimental: MDA-MB-231 cells were seeded overnight in 6-well plates, treated with different concentrations of 22e (0, 0.475, 0.95 and 1.9 μM) for another 72 h. After digestion and washing, the cell suspension was prepared and cultured with fluorescent probe 2′,7′-dichlorodihydrofluorescein diacetate (DCFH-DA, Sigma-Aldrich, Darmstadt, Germany) at 37 °C for 20 min. Then, after the cells were washed, the intracellular reactive oxygen species (ROS) was measured by flow cytometry at 488 nm (excitation wavelength) and 530 nm (emission wavelength).
# [6] = tested on: MDA-MB-231 cells; experiment: Cell-cycle analysis (PI staining, flow cytometry); format: cell-based, human; conditions: for cells in G2/M phase / cells in S phase / cells in G1 phase: 72 h; for cells in G2/M phase: control 11.04%; for cells in S phase: control 36.51%; for cells in G1 phase: control 52.44%
# [7] = tested on: MDA-MB-231 cells; experiment: Transwell assay (invasion); format: cell-based, human; conditions: 22e 0.475, 0.95 and 1.9 μM, 24 h
# Experimental: MDA-MB-231 cells were seeded in 24-well transwell plates upper chambers, different concentrations of 22e (0, 0.475, 0.95 and 1.9 μM) were incubated on the lower surface for 24 h. The cells in the upper surface of the membrane were removed, and the migrated or invaded cells of the membranes bottom surface were placed in 0.1% crystal violet for staining for 30 min. Finally, the cells that migrated or invaded of the chamber bottom were photographed and counted.
# [8] = tested on: TNBC cell line MDA-MB-231; experiment: CCK-8 assay, antiproliferative activity against MDA-MB-231; conditions: Homo sapiens, MDA-MB-231, 72 h, read-out: IC50 MDA-MB-231
compound,measurement,setting,value
"COC(=O)[C@H](Cc1ccc(N(CCCl)CCCl)cc1)NC(=O)CCCC(=O)NCc1coc2ccc(OC)cc2c1=O [Compound 22e, Methyl (S)-3-(4-(bis(2-chloroethyl)amino)phenyl)-2–(5-(((6-methoxy-4-oxo-4H-chromen-3-yl)methyl)amino)-5-oxopentanamido)propanoate]",tail DNA percentage,[1]; 22e 0.475 μM,19.95%
same,tail DNA percentage,[1]; 22e 0.95 μM,38.15%
same,tail DNA percentage,[1]; 22e 1.9 μM,48.73%
same,total apoptosis ratio,[2]; 22e 0.475 μM,11.00%
same,total apoptosis ratio,[2]; 22e 0.95 μM,16.27%
same,total apoptosis ratio,[2]; 22e 1.9 μM,42.12%
same,"adhesion of MDA-MB-231 cells, in words",[3],inhibit the adhesion of MDA-MB-231 cells in a concentration-dependent manner
same,"wound closure distance (migration), in words",[4],significantly shortened
same,DCFH-DA positive cells ratio,[5]; 22e 0.475 μM,8.05%
same,DCFH-DA positive cells ratio,[5]; 22e 0.95 μM,18.47%
same,DCFH-DA positive cells ratio,[5]; 22e 1.9 μM,45.98%
same,cells in G2/M phase,[6]; 22e 0.475 μM,12.98%
same,cells in S phase,[6]; 22e 0.475 μM,36.58%
same,cells in G1 phase,[6]; 22e 0.475 μM,50.44%
same,cells in G2/M phase,[6]; 22e 0.95 μM,14.53%
same,cells in S phase,[6]; 22e 0.95 μM,34.59%
same,cells in G1 phase,[6]; 22e 0.95 μM,50.88%
same,cells in G2/M phase,[6]; 22e 1.9 μM,21.28%
same,cells in S phase,[6]; 22e 1.9 μM,36.21%
same,cells in G1 phase,[6]; 22e 1.9 μM,42.51%
same,cells in the S phase (in words),"[6]; 22e 0.475, 0.95 and 1.9 μM versus control",remained essentially unchanged
same,"MDA-MB-231 cells invasion, in words",[7],significantly inhibited
same,IC50,[8],1.9 ± 0.18 µM
